Data set [1] relates to PBMCs. As to the kind of experiment: Cell viability assay in peripheral blood mononuclear cells. Type of data set: cell-based. The note with it: up to a concentration of 50 μM, 72 h. How it is done: Two days before the assay, phytohemagglutinin-A (PHA) 2 µg/mL was added to the PBMC culture. Cells were seeded at 13 × 10^4 cells/well in triplicate and maintained at 37 °C in 5% CO2. After 24 h, cells were treated with 10 μM and 50 μM of indicated drugs. After 72 h incubation, cells were washed in PBS and harvested. Cell number of each sample was determined with Z2 Coulter Counter (Beckman Coulter), in triplicate. Data about cell viability were plotted in GraphPad Prism 8.0 software 100% viability corresponding to vehicle (DMSO) treated PBMCs.

The test system of data set [2] is β-catenin. The data set can be described thus: Western blot of β-catenin protein levels in MDA MB 231 cells. The data set is classed as cell-based, human. As to conditions: MDA MB 231, 6 μM, 48 to 72 h. How it is done:
Cells (1 × 10^5) were seeded in 6-well plates. After 24 h, cells were treated for indicated times with DMSO (vehicle) or FHP01 or XAV939 (Merck). After treatments, cells were washed with cold PBS and total protein extracts obtained by adding 80 µL of “RIPA Lysis buffer” (50 mM Tris-HCl pH 8.0, 150 mM NaCl, 0.5% Sodium deoxycholate, 0.1% SDS, 1% NP-40, 2 mM Orthovanadate, 2mM Sodium fluoride, 1mM Dithiothreitol and 1× protease inhibitors). After mechanicals detachment with cell scrapers, total lysates were collected in tubes, vortexed, and incubated for 15 min on ice. Tumors from mice were collected and disrupted by bead homogenization in Lysing Matrix D tubes using a FastPrep-24 5G homogenizer (MP Biomedicals, Solon, OH, USA) filled with “RIPA Lysis buffer” w:v. Next, samples were centrifuged for 10 min at 16,000× g, and supernatants were collected, representing total cell lysates.
Densitometric analysis of western blots was performed with NIH Image J (National Institutes of Health).

Data set [3] deals with MDA MB 231 tumor xenografts. The data set can be described thus: MDA MB 231 tumor xenograft growth in athymic nude mice. Type of data set: in vivo. As to conditions: for mean tumor volume: 45 mg/kg i.p. 3 times a week. How it is done: (§1) Animal experiments were performed in accordance with current Italian legislation and the animal protocol has been reviewed and approved by Italian Ministero della Salute (authorization n. 886/2020-PR). The study was designed to verify the effect of newly synthetized molecule with DDX3X inhibitor activity administered via i.p at a concentration of 45 mg/kg on the tumor growth of xenograft MDA MB 231 human breast cancer cells. In the study, n refers to the number of tumors expressed on both flanks of the animals. The sample size was calculated by g-power calculator placing a predictable large (2-fold increase) effect size, alpha as 0.05, and a confidence interval of 95% and we set our experimental unit number of 10 (corresponding to 5 animals). Total number of animals used in the study was 10. Six-week-old athymic nude mice were purchased from Charles River Laboratories. Five animals in each cage acclimatized in our animal facilities for 5 days in individually ventilated cages. Animals were fed with the lab diet ad libitum and water was accessible at all times and kept under standard specific pathogen-free conditions of 12 h light/dark cycle. Observational analysis was performed at the beginning of experimental procedure to ensure animal wellbeing (Table S1).
To establish xenograft tumors, MDA MB 231 cells were cultured in media as described above. On the day of experiment, cells (2.8 × 10^6) were suspended in 150 μL PBS 1:1 Matrigel and injected subcutaneously on both size of the flank region of nude mice. In order to determine tumor volume by manual caliper, the greatest longitudinal diameter (length) and the greatest transverse diameter (width) were determined. Tumor volumes based on caliper measurements were calculated by the modified ellipsoidal formula Tumor volume = 1/2(length × width^2).
Group allocation and treatments: once tumors reached a mean size of 24.82 ± 2.56 mm^3, animals were allocated in two groups by minimization strategy according to tumor size: the treatment group received 100 μL of a 45 mg/kg FHP01 suspended in a vehicle consisting of 10% DMSO, 5% Tween 80, 85% H2O via i.p. injection three times per week for 4 weeks; the control group included animals treated with 100 μL of vehicle (10% DMSO, 5% Tween 80, 85% H2O). One control animal reached HEP and was sacrificed and was not account for in the analysis. […]
For the final statistics, the number of tumors analyzed was 8 in the control group (one animal died for unknown reasons as certified by the AWB designed veterinary) and 9 for the treated group (the volume of one tumor was considered outlier). Results were reported as tumor volume increase, normalizing the value of each measurement to the baseline value of each sample and expressed as mean ± SEM. […]

Data set [4] can be described thus: Tolerability in xenograft study: body weight and organ histology. Type of data set: in vivo, athymic nude mice. The protocol: as §1, with “S1). […]” for “S1).”

For `CCCCc1cn(-c2ccc(NC(=O)Nc3ccccc3C(F)(F)F)cc2)nn1` [FHP01], the “effect on viability of normal PBMC” value in data set [1] is reported as “no effect”. In addition, in data set [2], the β-catenin protein levels entry was “time-dependent reduction”. For the same compound, the mean tumor volume in data set [3] (Day 0 of the treatment) is listed as 25.49± 4.58 mm^3; in data set [3] (Day 18, control 73.40 ± 9.72), 24.18 ± 4.44 mm^3; in data set [3] (Day 28, control 129.85 ± 21.39) it was 37.23 ± 11.45 mm^3. The “effect size, decrease in tumor growth (control/treated)” value in data set [3] (end of the procedure, 45 mg/kg i.p.) is reported as “about 4 fold”. In data set [4] (45 mg/kg i.p. 3 times a week, all the treatment period), the animal body weight result is “No loss of animal body weight”. Moreover, the “histology of liver, brain, spleen and kidney” value in data set [4] (after 4 weeks of i.p. treatment, 45 mg/kg) is “did not show any sign of toxicity”.

The record behind these values is paper PMC8507746, “The FHP01 DDX3X Helicase Inhibitor Exerts Potent Anti-Tumor Activity In Vivo in Breast Cancer Pre-Clinical Models” (Cancers, 2021).
